Experimental data from patent US20130243741A1, “RENILLA/GAUSSIA TRANSFECTED CELLS AS A LIGHT SOURCE FOR IN-SITU PHOTODYNAMIC THERAPY OF CANCER” (KANSAS STATE UNIVERSITY RESEARCH FOUNDATION, priority 2010, published 2013).
One block for each compound: values may come before it.

What was measured:
[1] = tested on: B16F10 mouse melanoma cells; assay: LED/PDT irradiation experiment with MTT cell proliferation readout; assay type: cell-based; conditions: no irradiation, RuC2 at 8×10^−5 M
Description: LED-irradiation experiments employing RL5-B12120 Superbright LED's, (Qmax=470 nm, light output 0.0114±0.0008 W) and a light-attenuation system consisting of a series of parallel optical filters was performed. After trypsinization, B16F10 mouse melanoma cells were counted using a hemacytometer and the trypan blue exclusion method, and plated in tissue culture plates (TPP brand, Midwest Scientific). Four hours post-plating, RuC2, TCPP, or a 1:1 mixture of RuC2 and TCPP was added to the plates, with the 1:1 mixture containing each agent at half their respective concentrations to permit comparisons at the same molar concentrations of PDT-agents. The cells were then stored in the dark for 24 hours. Next, the cells were irradiated with high or low intensity of LED light for 45 min. Twenty-four hours post-radiation, MTT cell proliferation reagent (thiazolyl blue) was added to the cells, which were then incubated four hours. Next, SDS-solubilization buffer was added and the cells were incubated for 12 hours. The plates were then read using a plate reader (Spectramax 190) at 550 nm and 690 nm (background establishment).

[2] = cited from earlier work
[3] = Redox potentials of RuC2; assay type: physicochemical
[4] = tested on: 4T1luc2 breast cancer tumors; assay: Deep-tissue PDT treatment of metastatic 4T1 breast cancer in mice; assay type: in vivo, BALB C mice; conditions: DFO 300 mg/kg i.p.; p-value: 0.65
Description: In this Example, PDT using in-situ generation of light was used to treat metastatic breast cancer in BALB C mice. ALA was used as the only photosensitizer/prodrug, and DFO was used as the iron chelator. The mice were divided into three treatment groups as follows. On Day 0, the mice were inoculated with 4T1luc2 breast cancer cells (100,000/mouse, i.v.). On Day 3, 25 million NSCs were plated as described above for transfection. On Day 4, the cells were transfected with Glue. On Day 5, IVIS imaging with D-luciferin was carried out in the morning to determine tumor size and stratification of the mice. In the afternoon, the mice in Groups 2 and 3 were injected with the transfected cells (1 million/mouse). On Day 7, DFO was administered i.p. (300 mg/kg), as described above. On Day 8, the photosensitizing agent, ALA, was injected i.p. (100 mg/kg). Four hours later, cyclodextrin-complexed coelenterazine was administered i.v. (100 μg) into the tail vein of each mouse. The ALA/coelenterazine procedure was repeated on Day 9, and then on Day 10. The control groups were injected with PBS.

SMILES: O=C(O)c1ccc(-c2c3nc(c(-c4ccc(C(=O)O)cc4)c4ccc([nH]4)c(-c4ccc(C(=O)O)cc4)c4nc(c(-c5ccc(C(=O)O)cc5)c5ccc2[nH]5)C=C4)C=C3)cc1 [TCPP, tetrakis-4-carboxyphenyl-porphyrin]
- growth inhibition in the absence of irradiation [1]: zero

SMILES: O=c1c(Cc2ccc(O)cc2)nc2c(Cc3ccccc3)[nH]c(-c3ccc(O)cc3)cn1-2 [coelenterazine, 2-(4-hydroxybenzyl)-6-(4-hydroxyphenyl)-8-(phenylmethyl)imidazo[1,2-a]pyrazin-3(7H)-one]
- long-term stability ([2]; commercially available material): not long-term stable
- water solubility ([2]; native form): low

- E0 Ru^2+/1+ [3]: −0.477 V
- photochemical reduction potential E0*Ru^2+/1+ [3]: 1.670 V
- oxidation potential E0 Ru^3+/2 ([3]; vs. SHE, pH=7.0): 1.537 V
SMILES: O=C(O)CC[n+]1ccc(-c2ccnc(-c3cc(-c4cc[n+](CCC(=O)O)cc4)ccn3)c2)cc1.O=C(O)CC[n+]1ccc(-c2ccnc(-c3cc(-c4cc[n+](CCC(=O)O)cc4)ccn3)c2)cc1.O=C(O)CC[n+]1ccc(-c2ccnc(-c3cc(-c4cc[n+](CCC(=O)O)cc4)ccn3)c2)cc1.[Cl-].[Cl-].[Cl-].[Cl-].[Cl-].[Cl-].[Cl-].[Cl-].[Ru+2] [RuC2, Tris(N,N′″-bis(2-carboxyethyl)-4,4′:2,2″:4″,4′″-Quaterpyridine-N′N″-dium-N′,N′″) ruthenium(II)octachloride]
- growth inhibition in the absence of irradiation [1]: approx. 20%

SMILES: CC(=O)N(O)CCCCCNC(=O)CCC(=O)N(O)CCCCCNC(=O)CCC(=O)N(O)CCCCCN [DFO, deferoxamine]
- effect of the iron chelator on tumor growth [4]: mild effect in suppressing tumor growth
